Like-named read-outs stand apart in the source and are kept apart here.
Experiments:
HepG2 cells = experiment: cells; type: cell-based, human; conditions: for IC50: MTT, 24 h incubation, HepG2 cells, read-out: HepG2 IC50; for HepG2 TI (IC50 WI-38 / IC50 HepG2): therapeutic index, ratio of WI-38 IC50 to HepG2 IC50
Protocol: (§1) Cells were obtained from the ATCC Company (VACSERA), Cairo, Egypt. MTT assay were performed according to the literature method. More details are in the Supporting Information.
(§2) Recently, OSe compounds gained much attention as possible drug candidates due to their various pharmacological properties. Our group has reported several OSe candidates with potential anticancer, antimicrobial, and antioxidant activities. Therefore, the anticancer attributes of the newly prepared OSe compounds were estimated using the MTT assay against MCF-7 and HepG2 and compared with their respective cytotoxicity in WI-38 primary cells. The anthracycline drug doxorubicin was used as the standard. The minimal inhibition concentration required to kill 50% of the cells (IC50) was calculated from dose-response curves presented in Table 1. Moreover, the therapeutic index (TI) was also calculated (according to Equation (1)), which is considered a measure of the selectivity and safety of the synthesized compounds. (1) TI=IC50 for the normal WI38 cells/IC50 for the cancer cells […]
(§3) 1.1. The biological assays
(§4) 1.1.1. The anticancer activity
The breast adenocarcinoma (MCF-7), Hepatocellular carcinoma (HEPG-2), and nor-mal fibroblast (WI-38) cells were obtained from ATCC via Holding company for biological products and vaccines (VACSERA), Cairo, Egypt. The reagents RPMI-1640 medium, MTT, DMSO, and fetal bovine serum was obtained from Sigma Aldrich. Dulbecco’s modified Eagle’s medium was used as the culture medium for the cells, and the cytotoxicity was evaluated using the reported MTT assay. Doxorubicin was used as the positive reference, and the IC50 values were obtained from the corresponding dose-response curve.
This colorimetric assay is based on converting the yellow tetrazolium bromide (MTT) to a purple formazan derivative by mitochondrial succinate dehydrogenase in viable cells.
(§5) Cell lines were cultured in RPMI-1640 medium with 10% fetal bovine serum. Antibiotics added were 100 units/ml penicillin and 100µg/ml streptomycin at 37 C in a 5% Co2 incu-bator. The cell lines were seeded in a 96-well plate at a density of 1.0x10^4 cells/well. at 37 C for 48 h under 5% Co2. After incubation, the cells were treated with different concentra-tions of compounds and incubated for 24 h. After 24 h of drug treatment, 20 µl of MTT solution at 5mg/ml was added and incubated for 4 h. Finally, dimethyl sulfoxide (DMSO) in the volume of 100 µl is added to each well to dissolve the purple formazan formed. The colorimetric assay is measured and recorded at an absorbance of 570 nm using a plate reader (EXL 800, USA). The percentage of the relative cell viability was calculated as (A570 of treated samples/A570 of the untreated sample) X 100. […]
(§6) Inhibition%= (Ablank-Asample)/(Ablank)*100. (1)

Candida albicans = experiment: microbe, parasite or virus in culture; type: cell-based; parameters: C. albicans A% (activity index): concentration or dose not given beside the values; conditions: for zone of inhibition at 20 µM: Candida albicans, read-out: C. albicans IZD (mm); for C. albicans A% (activity index): zone of test compound / zone of standard (clotrimazole) x 100
Protocol: The antimicrobial activities of the OSe compounds were evaluated against C. albicans yeast, as well as E. coli and S. bacteria, employing the agar well diffusion assay. Furthermore, the MICs (in µM) were determined by the microdilution method according to the reported protocol. More details are in the Supporting Information.
Compounds were evaluated for their antimicrobial activity against the Gram-negative bacteria Escherichia coli (E. coli) and the Gram-positive bacteria Staphylococcus aureus (S. aureus), as well as the Candida albicans (C. albicans) fungal strain, using the agar diffusion assay. Ampicillin and clotrimazole were used as standards. Indeed, the antimicrobial properties of the OSe compounds were also obtained from the activity index percentage (A%) according to Equation (2). (2) A%=Zone of inhibition by test compound diametre/Zone of inhibition by standard diametre×100 . […]
1.1.1. The antimicrobial activity
The antimicrobial activities of the OSe compounds were evaluated against C. albicans yeast as well as E. coli gram-negative and S. aureus gram-positive bacteria employing the agar well diffusion assay. […]
compound by dissolving in DMSO. […]
Petri dishes, which in turn contain a nutrient media (agar 20 g, peptone 5 g, and beef extract 3 g) seeded with the dedicated strain. Incubation lasted for 24 h at 36
Furthermore, the MICs (in µM) were determined by the microdilution method according to the reported protocol. […]
as §6

WI-38 cells = experiment: cells; type: cell-based, human; conditions: MTT, 24 h incubation, normal WI-38 cells, read-out: WI38 IC50
Protocol: as §1
as §2, with “Our group has reported several OSe candidates with potential anticancer, antimicrobial, and antioxidant activities.” left out, “The minimal inhibition concentration required to kill 50% of the cells (IC50) was calculated from dose-response curves presented in Table 1.” left out
as §3, §4
(§7) The breast adenocarcinoma (MCF-7), Hepatocellular carcinoma (HEPG-2), and nor-mal fibroblast (WI-38) cells were obtained from ATCC via Holding company for biological products and vaccines (VACSERA), Cairo, Egypt.
(§8) DMSO, and fetal bovine serum was obtained from Sigma Aldrich. Dulbecco’s modified Eagle’s medium was used as the culture medium for the cells, and the cytotoxicity was evaluated using the reported MTT assay. Doxorubicin was used as the positive reference, and the IC50 values were obtained from the corresponding dose-response curve.
(§9) This colorimetric assay is based on converting the yellow tetrazolium bromide (MTT) to a purple formazan derivative by mitochondrial succinate dehydrogenase in viable cells. […]
as §5, with “added” for “Cell lines were cultured in RPMI-1640 medium with 10% fetal bovine serum. Antibiotics added”, “plate” for “plate reader (EXL 800, USA). The percentage of the relative cell viability was calculated as (A570 of treated samples/A570 of the untreated sample) X 100.”
(§10) The percentage of the relative cell viability was calculated as (A570 of treated samples/A570 of the untreated sample) X 100. […]

MCF-7 cells = experiment: cells; type: cell-based, human; conditions: for IC50: MTT, 24 h incubation, MCF-7 cells, read-out: MCF7 IC50; for MCF7 TI (IC50 WI-38 / IC50 MCF-7): therapeutic index, ratio of WI-38 IC50 to MCF-7 IC50
Protocol: as §1
as §2, with “Our group has reported several OSe candidates with potential anticancer, antimicrobial, and antioxidant activities.” left out, “The minimal inhibition concentration required to kill 50% of the cells (IC50) was calculated from dose-response curves presented in Table 1.” left out
as §3, §4, §7, §8, §9
as §5, with “added” for “Cell lines were cultured in RPMI-1640 medium with 10% fetal bovine serum. Antibiotics added”, “plate” for “plate reader (EXL 800, USA). The percentage of the relative cell viability was calculated as (A570 of treated samples/A570 of the untreated sample) X 100.”
as §10

Escherichia coli = experiment: Agar diffusion assay, E. coli; type: cell-based; parameters: E. coli A% (activity index): concentration or dose not given beside the values; conditions: for zone of inhibition at 20 µM: Escherichia coli, read-out: E. coli IZD (mm); for E. coli A% (activity index): zone of test compound / zone of standard (ampicillin) x 100
[1] = inhibition zone diameter, six-mm disks soaked with 20 μM of compound

Molecule | IC50 (HepG2 cells; Homo sapiens) [µM] | HepG2 TI (IC50 WI-38 / IC50 HepG2) (HepG2 cells) | zone of inhibition at 20 µM (Candida albicans; [1]) [mm] | C. albicans A% (activity index) (Candida albicans) [%] | IC50 (WI-38 cells; Homo sapiens) [µM] | IC50 (MCF-7 cells; Homo sapiens, MCF7) [µM] | MCF7 TI (IC50 WI-38 / IC50 MCF-7) (MCF-7 cells) | zone of inhibition at 20 µM (Escherichia coli; [1]) [mm] | E. coli A% (activity index) (Escherichia coli) [%] | IC50 (HepG2 cells) [µM] | C. albicans IZD (mm) (Candida albicans; [1]) | IC50 (WI-38 cells) [µM] | IC50 (MCF-7 cells) [µM] | E. coli IZD (mm) (Escherichia coli; [1])
O=C(C[Se]c1ccc(N2C(=O)CCC2=O)cc1)Nc1ccccc1 [Compound 14, 2-((4-(2,5-dioxopyrrolidin-1-yl)phenyl)selanyl)-N-phenylacetamide] | 12.6 ± 1 | 5 | 15 | 63 | 62 ± 3.6 | 17.1 ± 1.4 | 3.6 | 13 | 57 | – | – | – | – | –
2-((4-(2-(3-hydroxynaphthalen-1(4H)-ylidene)hydrazinyl)phenyl)selanyl)-N-phenylacetamide [Compound 9] | – | 5.3 | – | 88 | – | – | 12 | – | 87 | 7.48 ± 0.6 | 21 | 39.3 ± 2.5 | 3.27 ± 0.2 | 20
Nc1ccc([Se]CC(=O)Nc2ccccc2)cc1 [Compound 4, 2-((4-aminophenyl)selanyl)-N-phenylacetamide] | 18.3 ± 1.3 | 2.9 | 13 | 54 | 52.3 ± 3 | 11.3 ± 0.8 | 4.6 | 14 | 61 | – | – | – | – | –
CCOc1ccc(NC(=O)C[Se]c2ccc(N)cc2)cc1 [Compound 5, 2-((4-aminophenyl)selanyl)-N-(4-ethoxyphenyl)acetamide] | > 100 | – | 8 | 33 | > 100 | 25.5 ± 2 | 4 | 10 | 44 | – | – | – | – | –
Nc1ccc([Se]CC(=O)N[C@@H](Cc2c[nH]c3ccccc23)C(=O)O)cc1 [Compound 6, (2-((4-aminophenyl)selanyl)acetyl)tryptophan] | 8.86 ± 0.7 | 3.2 | 20 | 83 | 28.4 ± 2.2 | 5.69 ± 0.4 | 5 | 17 | 74 | – | – | – | – | –
C[Se]c1ccc(NC(=O)C=CC(=O)O)cc1 [Compound 15, 4-((4-(methylselanyl)phenyl)amino)-4-oxobut-2-enoic acid] | 9.94 ± 0.8 | 2 | 16 | 67 | 19.8 ± 1.5 | 7.03 ± 0.6 | 2.8 | 15 | 65 | – | – | – | – | –
O=C(O)CCC(=O)Nc1ccc([Se]CC(=O)Nc2ccccc2)cc1 [Compound 11, 4-oxo-4-((4-((2-oxo-2-(phenylamino)ethyl)selanyl)phenyl)amino)butanoic acid] | 26.7 ± 1.9 | 2.5 | 13 | 54 | 67.3 ± 3.9 | 21.2 ± 1.8 | 3.2 | 12 | 52 | – | – | – | – | –
C[Se]c1ccc(NC(=O)CCC(=O)O)cc1 [Compound 16, 4-((4-(methylselanyl)phenyl)amino)-4-oxobutanoic acid] | 32.6 ± 2.3 | 0.7 | 12 | 50 | 22.5 ± 1.9 | 29.5 ± 2.2 | 0.7 | 10 | – | – | – | – | – | –
